Reference: patent US10201530B2, “Treatment of BRCA1-defective cancer or resistant cancers” (City of Hope, priority 2014, dated 2019)
Read-outs that look alike come from different tables or passages of the source.

Legend:
PARP1 protein = PARP1 protein level by Western blot; type: cell-based, human; settings: HCC1937 cells irrespective of BRCA1 status, 4 h treatment
Description: For subcellular fractionation, cells were trypsinized and washed with cold PBS solution twice. […] Following centrifugation at 1,000 g for 5 min, the supernatant was collected (i.e., cytoplasmic fraction) and pellets were washed with the same buffer twice. The washed samples were extracted for 40 min on ice with fractionation buffer containing 0.5% NP-40 for nuclear fraction. All the samples were sonicated and clarified by centrifugation at 16,000 g for 15 min. Protein concentrations of all fractions were determined with Bio-Rad Protein Assay (Bio-Rad Laboratories, Hercules, Calif.). Immunoblotting was performed as described previously (21,22). Briefly, equal amounts of boiled protein samples were subjected to SDS-polyacrylamide gel electrophoresis (PAGE) and transferred onto nitrocellulose membranes (Bio-Rad Laboratories). Membranes were blocked for 1 hour in 3% BSA in Tris buffered saline containing 0.05% Tween 20 (TBST) and incubated for 1 hour with primary antibody (1:500 or 1:1000) diluted in TBST containing 1% BSA. After two washes with TBST, membranes were incubated for 1 hour with horseradish peroxidase-conjugated secondary Abs (1:3000 dilution) at room temperature. The immunoblots were visualized on film with the West-Q chemi-luminescence kit (GenDEPOT, Barker, Tex.).

OV90 = assay: Cytotoxicity (MTT/DIMSCAN), OV90 cells; type: cell-based, human; settings: read-out: IC50, mean ± SEM
Description: (§1) All cell lines were acquired from the American Type Culture Collection (Manassas, Va., USA). Cells were maintained in RPMI 1640 medium (Mediatech) with 10% fetal bovine serum, 2 mM glutamine, and 100 U of penicillin and 100 μg of streptomycin per ml of medium (Sigma) at 37° C. in 5% CO2. To isolate HCC1437+BRCA1 cells, parental HCC1937 cells were transfected with pcDNA3.1 plasmid expressing full-length BRCA1 cDNA. Stable transfectant clones were selected and used for drug sensitivity assays. For stable transfection, cells at 30-40% confluence were incubated overnight with […] of plasmid DNA, using FUGENE® 6 transfectin reagent (Roche Molecular Biochemical, Monza, Italy) according to the manufacturer's instructions. Cells were then selected in puromycin (1 μg/ml) (Invitrogen life Technologies, La Jolla, Calif., USA.) After 20 to 30 days, viable puromycin-resistant colonies from HCC1937 transfections were expanded and screened. The clones that stably expressed […] and retained growth potential were assayed for BRCA1 expression by Western blot analysis. By Western blot analysis, we evaluated the restoration of BRCA1 expression in the puromycin-resistant cDNA/transfectant cells.
(§2) The MTT cytotoxicity assay was performed by incubating with MTT and monitoring the MTT formazan formed by viable cells with a microplate reader at a wavelength of 560 nm; the survival, ratio was determined using the formula: (Atest−Ablank)/(Acontrol−Ablank)×100%. The cytotoxicity was determined in 96-well plates using the semiautomatic fluorescence-based Digital Imaging Microscopy System (DIMSCAN). DIMSCAN uses digital imaging microscopy to quantify viable cells, which selectively accumulate FDA (fluorescein diacetate; Alfa Aesar, Ward Hill, Mass.). DIMSCAN is capable of measuring cytotoxicity over a 4 log dynamic range by quantifying total fluorescence per well (which is proportional to the number of viable cells) after elimination of the background fluorescence by digital thresholding and eosin Y (Mallinckrodt Baker, Center Valley, Pa.) quenching. Cells were seeded into 96-well plates in 100 μL of complete medium at 2,000 to 5,000 cells per well depending on cell line growth rate. After overnight incubation, test compound was added to each well at various concentrations in 50 μL of culture medium. […] Total fluorescence per well was then measured using DIMSCAN, and the results were expressed as the ratio of the fluorescence in treated wells to the fluorescence in untreated wells (survival fraction).

TOV112D = assay: Cytotoxicity, TOV112D cells; type: cell-based, human; settings: read-out: IC50, mean ± SEM
Description: as §1
(§3) The MTT cytotoxicity assay was performed by incubating with MTT and monitoring the MTT formazan formed by viable cells with a microplate reader at a wavelength of 560 nm; the survival, ratio was determined using the formula: (Atest−Ablank)/(Acontrol−Ablank)×100%. The cytotoxicity was determined in 96-well plates using the semiautomatic fluorescence-based Digital Imaging Microscopy System (DIMSCAN). DIMSCAN uses digital imaging microscopy to quantify viable cells, which selectively accumulate FDA (fluorescein diacetate; Alfa Aesar, Ward Hill, Mass.). DIMSCAN is capable of measuring cytotoxicity over a 4 log dynamic range by quantifying total fluorescence per well (which is proportional to the number of viable cells) after elimination of the background fluorescence by digital thresholding and eosin Y (Mallinckrodt Baker, Center Valley, Pa.) quenching. Cells were seeded into 96-well plates in 100 μL of complete medium at 2,000 to 5,000 cells per well depending on cell line growth rate. After overnight incubation, test compound was added to each well at various concentrations in 50 μL of culture medium. After incubation with the drugs for 96 hours at 37° C., FDA (final concentration: […]) and eosin Y [final concentration: 0.1% (w/v)] were added to each well and the cells were incubated for an additional 20 minutes at 37° C. Total fluorescence per well was then measured using DIMSCAN, and the results were expressed as the ratio of the fluorescence in treated wells to the fluorescence in untreated wells (survival fraction).

OVCAR-3 = assay: Cytotoxicity, OVCAR-3 cells; type: cell-based, human; settings: read-out: IC50, mean ± SEM
Description: as §1, §3

OVCAR-4 = assay: Cytotoxicity, OVCAR-4 cells; type: cell-based, human; settings: read-out: IC50, mean ± SEM
Description: as §1, §3

UWB1.289 = assay: Cytotoxicity, UWB1.289 cells; type: cell-based, human; settings: read-out: IC50, mean ± SEM
Description: as §1, §2

UWB1.289 + BRCA1 = assay: Cytotoxicity, UWB1.289+BRCA1 cells; type: cell-based, human; settings: read-out: IC50, mean ± SEM
Description: as §1, §2

KB-Gem = assay: Cytotoxicity, KB-Gem cells; type: cell-based, human; settings: gemcitabine-resistant, read-out: IC50, mean ± SEM
Description: as §1, §3

KB-7D = assay: Cytotoxicity, KB-7D cells; type: cell-based, human; settings: cisplatin-resistant, read-out: IC50, mean ± SEM
Description: as §1, §3

A2780 = assay: Cytotoxicity, A2780 cells; type: cell-based, human; settings: A2780, cisplatin-sensitive ovarian cells, read-out: IC50, mean ± SEM
Description: as §1, §3

A2780-DDDP = assay: Cytotoxicity, A2780-DDDP cells; type: cell-based, human; settings: cisplatin-resistant ovarian cells, read-out: IC50, mean ± SEM
Description: as §1, §3

MDA-MB-231 = assay: Cytotoxicity, MDA-MB-231 cells; type: cell-based, human
Description: as §1, §3

HCC1937 = assay: Cytotoxicity, HCC1937 cells; type: cell-based, human
Description: as §1
(§4) The MTT cytotoxicity assay was performed by incubating with MTT and monitoring the MTT formazan formed by viable cells with a microplate reader at a wavelength of 560 nm; the survival, ratio was determined using the formula: (Atest−Ablank)/(Acontrol−Ablank)×100%. The cytotoxicity was determined in 96-well plates using the semiautomatic fluorescence-based Digital Imaging Microscopy System (DIMSCAN). DIMSCAN uses digital imaging microscopy to quantify viable cells, which selectively accumulate FDA (fluorescein diacetate; Alfa Aesar, Ward Hill, Mass.). DIMSCAN is capable of measuring cytotoxicity over a 4 log dynamic range by quantifying total fluorescence per well (which is proportional to the number of viable cells) after elimination of the background fluorescence by digital thresholding and eosin Y (Mallinckrodt Baker, Center Valley, Pa.) quenching. […]

HCC1937 + BRCA1 = assay: Cytotoxicity, HCC1937+BRCA1 cells; type: cell-based, human
Description: as §1, §4

MCF-7 = assay: Cytotoxicity, MCF-7 cells; type: cell-based, human
Description: as §1, §4

SKBR3 = assay: Cytotoxicity, SKBR3 cells; type: cell-based, human
Description: as §1, §4

zebrafish embryos = assay: Zebrafish genotoxicity assay; type: in vivo, Danio rerio; settings: wild-type zebrafish embryos, HU 0-50 mM
Description: Zebrafish (Danio rerio) were obtained from zebrafish Core facility of Taipei Medical University and maintained at 28° C. on a 14 h light/10 h dark cycle. Embryos were incubated at 28° C. and different developmental stages were determined as described (25). Wild-type embryos were treated with different concentrations of HU (0, 5, […], 20, 50 mM) or COH29 (0, 10, 20, 50, 100 μM) at 20 hpf to evaluate the mutagenic effect. Fifteen embryos were treated per well condition. […] Embryos were observed using an Olympus IX70-FLA inverted fluorescence microscope. Images were taken using SPOT digital camera system (Diagnostic Instruments, Sterling Heights, Mich., USA) and assembled with ImageJ software (26).

[1] = Homo sapiens, UWB1289, UWB1.289
[2] = Homo sapiens, UWB1289, UWB1.289 + BRCA1
[3] = Homo sapiens, MDA-MB-231, TNBC, read-out: IC50, mean ± SEM

Q: With `C[C@]1(c2nc3c(C(N)=O)cccc3[nH]2)CCCN1` [ABT-888] as the compound, how does the “effect on PARP1 protein level” value (PARP1 protein) read?
A: significant reduction of PARP1

Q: What does the source list for `N.N.[Cl][Pt][Cl]` [Cisplatin]?
A: IC50 (OV90; OV90, wild-type BRCA1 ovarian cancer cells, COH29 72 h): 1570 ± 290 nM; IC50 (TOV112D): 1320 ± 200 nM; IC50 (OVCAR-3): 1640 ± 40 nM; IC50 (OVCAR-4): 2250 ± 250 nM; IC50 (UWB1.289; UWB1.289, BRCA1-defective ovarian cancer cells, COH29 72 h): 1430 ± 870 nM; IC50 (UWB1.289 + BRCA1; UWB1.289 + BRCA1 (WT), COH29 72 h): 7400 ± 2020 nM; IC50 (KB-Gem): 380 ± 30 nM; IC50 (KB-7D): 7500 ± 300 nM; IC50 (A2780): 690 nM; IC50 (A2780-DDDP): 5020 ± 1180 nM; IC50 (MDA-MB-231; MDA-MB-231, TNBC, read-out: IC50, mean ± SEM): 3740 ± 210 nM; IC50 (HCC1937; HCC1937, triple negative, BRCA1 mutant, COH29 72 h): 2460 ± 110 nM; IC50 (HCC1937 + BRCA1; HCC1937 + BRCA1, triple negative, COH29 72 h): 2930 ± 550 nM; IC50 (MCF-7; MCF-7, ER+ PR(+)): 12100 ± 1020 nM; IC50 (SKBR3; SKBR3, ER− PR(−) HER2+): 990 ± 240 nM

Q: With `Nc1ccn([C@@H]2O[C@H](CO)[C@@H](O)C2(F)F)c(=O)n1` [Gemcitabine] as the compound, how does the IC50 (OV90; Homo sapiens, OV-90, OV90) read?
A: 78.3 ± 11.6 nM

Q: And the IC50 (TOV112D; Homo sapiens)?
A: 28.4 ± 4.18 nM

Q: What about the IC50 (OVCAR-3; Homo sapiens) of the same compound?
A: 118 nM

Q: What about the IC50 (OVCAR-4; Homo sapiens) of the same compound?
A: 55.1 ± 3.55 nM

Q: And the IC50 (UWB1.289; [1])?
A: 56.48 ± 0.32 nM

Q: What about the IC50 (UWB1.289 + BRCA1; [2]) of the same compound?
A: 42.2 ± 0.62 nM

Q: And the IC50 (KB-Gem; Homo sapiens)?
A: 60 ± 10 nM

Q: And the IC50 (KB-7D; Homo sapiens, KB7D)?
A: 0.69 ± 0.02 nM

Q: And the IC50 (A2780; Homo sapiens)?
A: 25.5 ± 1.66 nM

Q: And the IC50 (A2780-DDDP; Homo sapiens)?
A: 36.3 ± 0.79 nM

Q: And the IC50 (MDA-MB-231; [3])?
A: 17 ± 1.33 nM

Q: Which developmental defects (zebrafish embryos; COH29 0-100 μM) does the source give for `NC(=O)NO` [HU, hydroxyurea] here?
A: caused defects in eyes and heart by 4 dpf

Q: And the “number of mutant embryos” value (zebrafish embryos)?
A: dose-dependent increase in the number of mutant embryos

Q: For `CC(=O)O[C@H]1C(=O)[C@@]2(C)[C@H]([C@H](OC(=O)c3ccccc3)[C@]3(O)C[C@H](OC(=O)[C@H](O)[C@@H](NC(=O)c4ccccc4)c4ccccc4)C(C)=C1C3(C)C)[C@]1(OC(C)=O)CO[C@@H]1C[C@@H]2O` [Paclitaxel], which IC50 (OV90; Homo sapiens, OV-90, OV90) is on record?
A: 9.09 ± 0.41 nM

Q: What about the IC50 (TOV112D; Homo sapiens) of the same compound?
A: 6.45 ± 1.05 nM

Q: And the IC50 (OVCAR-3; Homo sapiens)?
A: 2.89 ± 0.07 nM

Q: What about the IC50 (OVCAR-4; Homo sapiens) of the same compound?
A: 5.55 ± 0.05 nM

Q: And the IC50 (UWB1.289; [1])?
A: 13.9 ± 0.7 nM

Q: What about the IC50 (UWB1.289 + BRCA1; [2]) of the same compound?
A: 13 ± 1.62 nM

Q: What about the IC50 (KB-Gem; Homo sapiens) of the same compound?
A: 1.95 ± 0.15 nM

Q: And the IC50 (KB-7D; Homo sapiens, KB7D)?
A: 5.17 ± 0.17 nM

Q: What about the IC50 (A2780; Homo sapiens) of the same compound?
A: 3.6 ± 1.67 nM

Q: What about the IC50 (A2780-DDDP; Homo sapiens) of the same compound?
A: 11.4 ± 1.49 nM

Q: What about the IC50 (MDA-MB-231; [3]) of the same compound?
A: 2.01 ± 0.57 nM

Q: What about the IC50 (MDA-MB-231; Homo sapiens, MDA-MB-231, Table 3 paclitaxel column, read-out: IC50) of the same compound?
A: 2.01 ± 0.57 nM

Q: And the IC50 (HCC1937; Homo sapiens, HCC1937, Table 3 paclitaxel column)?
A: 4.04 ± 0.44 nM

Q: What about the IC50 (HCC1937 + BRCA1; Homo sapiens, HCC1937 + BRCA1, Table 3 paclitaxel column) of the same compound?
A: 5.4 ± 0.07 nM

Q: What about the IC50 (MCF-7; Homo sapiens, MCF7, MCF-7, Table 3 paclitaxel column) of the same compound?
A: 6.36 ± 1.11 nM

Q: And the IC50 (SKBR3; Homo sapiens, SK-BR-3, SKBR3, Table 3 paclitaxel column)?
A: 3.37 ± 0.08 nM
